Earlier results, collected in patent US12251395B2, “RNAS for complement inhibition” (Apellis Pharmaceuticals, Inc., priority 2019, dated 2025).
Bridges are numbered along the chain shown (N, C = ends). [ ]: non-standard residue; d: D form. Trp(5-F) = N[C@@H](Cc1c[nH]c2ccc(F)cc12)C(=O)O; Trp(5-Me) = Cc1ccc2[nH]cc(C[C@H](N)C(=O)O)c2c1; Trp(6-F) = N[C@@H](Cc1c[nH]c2cc(F)ccc12)C(=O)O; Bpa = N[C@@H](Cc1ccc(C(=O)c2ccccc2)cc1)C(=O)O; 1Nal = N[C@@H](Cc1cccc2ccccc12)C(=O)O; 2Nal = N[C@@H](Cc1ccc2ccccc2c1)C(=O)O; Igl = N[C@H](C(=O)O)C1Cc2ccccc2C1

Tests used:
complement activation [1] = settings: relative to compstatin amidated at the C-terminus; published data
complement activation [2] = settings: alternative pathway-mediated erythrocyte lysis assay (WO2004/026328); read-out: IC50 of compstatin

In the case of “Ac-ICV(1-Nal)QDWGAHRCT-COOH (Ac-ICV[1Nal]QDWGAHRCT-OH; disulfide 2-12 (inferred)) [Ac V4(1-Nal)/H9A -OH]”, the “Activity over corn statin” value (complement activation [1]) is given as 30xmore.

In the case of Ac-ICVYQDWGAHRCT-CONH2 [Ac-V4Y/H9A], the “Activity over corn statin” value (complement activation [1]) is given as 14xmore.

In the case of “Ac-ICV(Bpa)QDWGAHRCT-COOH (Ac-ICV[Bpa]QDWGAHRCT-OH; disulfide 2-12 (inferred)) [Ac-V4(Bpa)/H9A -OH]”, the “Activity over corn statin” value (complement activation [1]) is listed as 49xmore.

In the case of “Ac-ICWQDWGHHRCT-NH2 (cysteine pairing not given here) [Ac-compstatin]”, the “Activity over corn statin” value (complement activation [1]) is given as 3xmore.

For “Ac-ICV(Bpa)QDWGAHRCT-CONH2 (Ac-ICV[Bpa]QDWGAHRCT-NH2; disulfide 2-12 (inferred)) [Ac-V4(Bpa)/H9A]”, the “Activity over corn statin” value (complement activation [1]) is given as 86xmore.

For “H-GICV(6fW)QD(6fW)GAHRCTN-COOH (H-GICV[Trp(6-F)]QD[Trp(6-F)]GAHRCTN-OH; disulfide 3-13 (inferred)) [+G/V4(6fW)/W7(6fW)H9A+FN-OH]”, the “Activity over corn statin” value (complement activation [1]) is given as 126xmore.

For “Ac-ICVWQDWGAHRCdT-COOH [Ac-V4W/H9A/T13dT -OH]”, the “Activity over corn statin” value (complement activation [1]) is given as 55xmore.

For “Ac-ICV(2-IgI)QDWGAHRCT-CONH2 (Ac-ICV[Igl]QDWGAHRCT-NH2; disulfide 2-12 (inferred)) [Ac-V42IgI/H9A]”, the “Activity over corn statin” value (complement activation [1]) is listed as 39xmore.

For CC[C@H](C)[C@H](N)C(=O)N[C@H]1CSSC[C@@H](C(=O)N[C@H](C(N)=O)[C@@H](C)O)NC(=O)[C@H](CCCN=C(N)N)NC(=O)[C@H](Cc2cnc[nH]2)NC(=O)[C@H](Cc2cnc[nH]2)NC(=O)CNC(=O)[C@H](Cc2c[nH]c3ccccc23)NC(=O)[C@H](CC(=O)O)NC(=O)[C@H](CCC(N)=O)NC(=O)[C@H](C(C)C)NC(=O)[C@H](C(C)C)NC1=O [Compstatin, H-ICVVQDWGHHRCT-CONH2], the IC50 (complement activation [2]) is given as 12 µM.

For “Ac-ICVWQDWGAHRCT-CONH2 (Ac-ICVWQDWGAHRCT-NH2; disulfide 2-12 (inferred)) [Ac-V4W/H9A]”, the “Activity over corn statin” value (complement activation [1]) is listed as 45xmore.

For “Ac-ICV(5-methyl-W)QDWGAHRCT-CONH2 (Ac-ICV[Trp(5-Me)]QDWGAHRCT-NH2; disulfide 2-12 (inferred)) [Ac-V4(5-MeW)/H9A]”, the “Activity over corn statin” value (complement activation [1]) is given as 67xmore.

In the case of “Ac-ICV(2-IgI)QDWGAHRCT-COOH (Ac-ICV[Igl]QDWGAHRCT-OH; disulfide 2-12 (inferred)) [Ac-V42IgI/H9A -OH]”, the “Activity over corn statin” value (complement activation [1]) is listed as 37xmore.

In the case of “Ac-ICV(2-Nal)QDWGAHRCT-CONH2 (Ac-ICV[2Nal]QDWGAHRCT-NH2; disulfide 2-12 (inferred)) [Ac-V4(2-Nal)/H9A]”, the “Activity over corn statin” value (complement activation [1]) is given as 99xmore.

In the case of “Ac-ICV(2-Nal)QDWGAHRCT-COOH (Ac-ICV[2Nal]QDWGAHRCT-OH; disulfide 2-12 (inferred)) [Ac V4(2-Nal)/H9A -OH]”, the “Activity over corn statin” value (complement activation [1]) is listed as 38xmore.

For “H-GICV(5fW)QD(5fW)GAHRCTN-COOH (H-GICV[Trp(5-F)]QD[Trp(5-F)]GAHRCTN-OH; disulfide 3-13 (inferred)) [G/V4(5f-W)/W7(5fW)/H9A+FN-OH]”, the “Activity over corn statin” value (complement activation [1]) is listed as 112xmore.

In the case of “Ac-ICV(5fW)QDWGAHRCT-CONH2 (Ac-ICV[Trp(5-F)]QDWGAHRCT-NH2; disulfide 2-12 (inferred)) [Ac-V4(5fW)/H9A]”, the “Activity over corn statin” value (complement activation [1]) is listed as 31xmore.

For “Ac-ICVWQD(5fW)GAHRCT-CONH2 (Ac-ICVWQD[Trp(5-F)]GAHRCT-NH2; disulfide 2-12 (inferred)) [Ac-V4W/W7(5fW)/H9A]”, the “Activity over corn statin” value (complement activation [1]) is listed as 121xmore.
